Measurements as given in patent US8003331B2, “Method for identifying target protein of drug and method for screening therapeutic agent for diabetes using the target protein” (Astellas Pharma Inc., priority 2005, dated 2011).
Entries after “also recorded” stand apart in the source; their conditions may differ.

What was measured:
human ATP5B [1] = molecular target: T1, human ATP5B (Homo sapiens, UniProt P06576); assay: competitive inhibition of binding of ATP5B and MTX-phenformin; details: MTX-phenformin 10 μM; free phenformin 10 μM; compounds A and B 'addition of 10'
T1 construct: an attempt was made to amplify complete length cDNA of human ATP5B; made in house; host or cells: cell-free: TNT Quick Coupled Transcription/Translation System (Promega) from pcDNA-ATP5B; GST-DHFR from E. coli BL21

[2] = molecular target: T2, Glu 175 Val mutation type ATP5B (Homo sapiens, UniProt P06576, E175V); assay: GST-DHFR / MTX-phenformin pull-down, Glu 175 Val mutation type ATP5B; assay type: binding; details: pull-down assay as Example 5(4)
T2 construct: a complete length cDNA of about 1600 base pairs coding for a Glu 175 Val mutation type ATP5B; made in house
Excerpt: Using the aforementioned expression plasmid pcDNA-ATP5B as the template and using respective sets of primers of the nucleotide sequences represented by SEQ ID NO:87 and SEQ ID NO:81, and SEQ ID NO:80 and SEQ ID NO:88, two DNA fragments of about 530 base pairs of 5′-side and about 1080 base pairs of 3′-side of cDNA having a mutation in which the 175th position of amino acid, Glu, of human ATP5B was replaced by Val were amplified by PCR. All of the PCR reaction, cloning stem and determination of nucleotide sequence were the same as the methods shown in Example 5(1). Using an equivalent mixture of the thus obtained two PCR products as the template, PCR was carried out using the primers represented by SEQ ID NO:80 and SEQ ID NO:81 this time, thereby obtaining a complete length cDNA of about 1600 base pairs coding for a Glu 175 Val mutation type ATP5B. The thus obtained cDNA fragment was cloned into an expression vector (pcDNA3.1/V5-His-TOPO; Invitrogen), and then the nucleotide sequence inserted into the vector was identified using the synthetic primer represented by SEQ ID NO:90 to confirm that the Glu 175 Val mutation was formed in ATP5B. The thus obtained expression plasmid is referred to as pcDNA-ATP5B(E175V) hereinafter. […]

human ATP5B [3] = molecular target: T1, human ATP5B; assay: GST-DHFR / MTX-phenformin GST pull-down of 35S-labeled ATP5B; assay type: binding; details: 10 μM MTX-phenformin fixed to GST-DHFR; wild type ATP5B
Procedure: Promega) and 0.74 MBq of a radioisotope (redivue Pro-mix L-[35S]; Amersham) and in accordance with the protocols attached thereto. A 15 μl portion of this human ATP5B protein preparation liquid and 1 μg for each of the GST protein or GST-DHFR, purified on the glutathione Sepharose beads, were mixed and shaken at 4° C. for 1 hour after adding 0.3 ml of buffer A thereto. Thereafter, the protein binding to the GST protein or GST-DHFR on beads was co-precipitated by centrifugation. After repeating this operation 4 times, proteins in the precipitate were separated by SDS polyacrylamide gel electrophoresis in accordance with a conventionally known method, and the protein bound to the probe was detected by an autoradiography.

AMPK = AMPK activation ability detection in HeLa S3 cell (anti-phospho AMPK western blotting); assay type: cell-based, human; details: phenformin 1 mM, 1 hr
Procedure: This expression plasmid pcDNA-LKB1 and the pcDNA-ATP5B prepared in the aforementioned Example 5(1) or an empty vector (pcDNA3.1) (Invitrogen) were transferred into HeLa S3 cell. The HeLa S3 cell (ATCC) was cultured in a 6 well culture plate (35 mm in well diameter) until it reached a state of 70% confluent, by adding 2 ml of a minimum essential medium DMEM (Gibco) containing 10% fetal bovine serum (Sigma) to each well of the culture plate. The medium was substituted by 1 ml per well of a serum-free medium OPTI MEM I (Invitrogen), and 3.0 μg/well of each of the empty vector (pcDNA3.1), pcDNA-LKB1 and pcDNA-ATP5B was transiently transferred using Lipofect amine 2000 (Invitrogen). After 12 hours of the culturing, this was substituted by 2 ml/well of DMEM containing 10% of fetal bovine serum from which low molecular substances had been removed by a charcoal treatment, and further cultured for 36 hours. This was further cultured for 1 hour (1 hr) under a condition of adding phenformin (Sigma) to a final concentration of 1 mM or the solvent (DMSO) alone. The medium was discarded, the cells were washed with a phosphate buffer (to be referred to as PBS hereinafter, and then the cells were lysed by adding 0.15 ml of the aforementioned buffer A (however, the NaCl concentration was 150 mM, and various phosphatase inhibitors; 2 mM Na3VO4, 10 mM NaF, 25 mM β-glycerophosphate, 0.2 mM Na2MoO4, 20 nM okadaic acid, were added). The activity of AMPK in the cells was detected at the level of phosphorylation of molecules by a conventionally known SDS electrophoresis and a western blotting which uses an anti-phosphorylation AMPK antibody (Phospho-AMPK-α(Thr172) Antibody, Daiichi Pure Chemicals). In this case, in order to confirm that there is no difference in the amount of protein of AMPKα (an AMPK subunit which undergoes phosphorylation) among samples, a western blotting which uses an anti-AMPKα antibody (Daiichi Pure Chemicals) was simultaneously carried out. […] However, in the cell in which human ATP5B was expressed by transferring pcDNA-ATP5B, activation of AMPK by phenformin treatment was not found.

ATP5B = molecular target: T3, ATP5B (Rattus norvegicus, UniProt P10719); assay: GST-HSPA4 pull-down from L 6 cell extract, silver staining and mass spectrum identification; assay type: binding; details: phenformin 50 nM added vs no addition
T3 construct: a rat skeletal muscle-derived cell, L 6 cell (ATCC); endogenous in cells; host or cells: L6 (rat skeletal muscle)
Excerpt: Using the aforementioned method shown in Example 2(2), attempt was made to screen the target protein of biguanide whose direct target protein has been unclear in spite of its significant drug effect as an agent for treating diabetes. Firstly, a rat skeletal muscle-derived cell, L 6 cell (ATCC), was suspended in a minimum essential medium (αMEM, Invitrogen) containing 10% fetal calf serum (FCS) and cultured on a collagen-coated plate of 15 cm in diameter (Asahi Techno Glass) until reaching the confluent state. The resulting cells were washed twice with 15 ml of ice-cooled phosphate buffer (PBS) and then lysed by adding 2.0 ml of the aforementioned buffer A, and the cell extract was collected using a scraper. […] After 1 hour of shaking at 4° C., the protein binding to the GST-HSPA4 on beads was co-precipitated by centrifugation. In this connection, in order to prevent drop out of the molecular chaperone protein from the beads, the molecular chaperone protein and beads were used by chemically crosslinking them in advance by a conventionally known method. […] As a result, a large protein band of about 60 kDa, in which its amount to bind to the molecular chaperone protein is reduced at the time of adding phenformin in comparison with the case of no addition, was detected. […]

[4] = molecular target: T4, Asp 295 Val mutation type ATP5B (Homo sapiens, UniProt P06576, D295V); assay: GST-DHFR / MTX-phenformin pull-down, Asp 295 Val mutation type ATP5B; assay type: binding; details: pull-down assay as Example 5(4)
T4 construct: a complete length cDNA coding for an Asp 295 Val mutation type ATP5B was obtained; made in house

- influence on binding of ATP5B and MTX-phenformin (human ATP5B [1]): obstructed
- amount of about 60 kDa protein band (ATP5B) binding to the molecular chaperone protein (ATP5B): reduced
SMILES: [H]/N=C(/N)N/C(=N/[H])NCCc1ccccc1 [phenformin]
- binding with Glu 175 Val mutation type ATP5B [2]: not able to confirm the binding; also recorded: disappearance
- binding with human ATP5B (band of about 60 kDa, autoradiography) (human ATP5B [3]): directly binds; also recorded: able to confirm binding
- phosphorylation level (activation) of AMPK (AMPK; HeLa S3 cell without ATP5B over-expression (empty vector- or pcDNA-LKB1-transferred), concentration of compounds A and B not given): significantly accelerated and activated
- activation of AMPK in cell over-expressing human ATP5B (AMPK; pcDNA-ATP5B-transferred HeLa S3 cell, metformin 10 mM): not found; also recorded: disappearance
- binding with Asp 295 Val mutation type ATP5B [4]: not able to confirm the binding; also recorded: disappearance
